Entries after “also recorded” stand apart in the source; their conditions may differ. Peptide text beside a SMILES is read from it.

In one experiment the target is CMG2 (Homo sapiens, UniProt P58335, C175A/R40C). The experiment in a line: biochemical. It is filed as binding. The settings on record: for koff: read-out: off-rate / koff (BLI).
A further experiment has as its system EA.hy926 cells. It is filed as cell-based, human.
In experiment [1] the test system is EOMA cells. It is filed as cell-based, murine.
Experiment [2] concerns EOMA cells. It is filed as cell-based, murine. The settings on record: n=3.
Another experiment addresses TEM8 (Homo sapiens, UniProt Q9H6X2). It is filed as binding. The settings on record: 250nM mCitrine-TEM8, 325nM PA-546; S16 313 nM to 40 μM.

Chain of CMG2 (P58335 40-217 R40C/C175A limits assumed): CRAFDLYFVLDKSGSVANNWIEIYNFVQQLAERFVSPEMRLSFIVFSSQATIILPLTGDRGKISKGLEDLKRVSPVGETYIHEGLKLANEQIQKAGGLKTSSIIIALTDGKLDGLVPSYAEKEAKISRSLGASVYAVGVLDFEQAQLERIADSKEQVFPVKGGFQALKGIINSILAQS
Chain of TEM8 (Q9H6X2 44-215 limits assumed): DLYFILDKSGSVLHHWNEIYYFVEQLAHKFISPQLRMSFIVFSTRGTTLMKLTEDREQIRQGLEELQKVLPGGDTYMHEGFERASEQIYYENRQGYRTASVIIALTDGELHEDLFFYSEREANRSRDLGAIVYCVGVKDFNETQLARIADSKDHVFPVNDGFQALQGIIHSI

Take `CC[C@H](C)[C@H](NC(=O)[C@H](CO)NC(=O)[C@@H](N)C(C)C)C(=O)NCC(=O)N[C@@H](Cc1ccc(O)cc1)C(=O)N[C@@H](CC(C)C)C(=O)N[C@@H](CC(C)C)C(=O)N[C@H](C(=O)N[C@@H](CCCCN)C(=O)N[C@@H](Cc1c[nH]cn1)C(=O)N[C@@H](CO)C(=O)N[C@@H](CCC(N)=O)C(=O)N[C@H](C(=O)N[C@@H](CC(=O)O)C(=O)N[C@@H](CCC(N)=O)C(=O)O)[C@@H](C)O)C(C)C` [Peptide U12] (H-VSIGYLLVKHSQTDQ-OH; N-terminus and C-terminus assumed): the koff on CMG2 was found to be 0.0125 ± 0.0002 s⁻¹. In addition, the “kon (BLI)” value on CMG2 (representative fit) is 150 ± 10 M/s.
As to `CC[C@H](C)[C@H](NC(=O)[C@H](C)NC(=O)[C@@H](NC(=O)[C@H](C)NC(=O)[C@@H]1CCCN1)[C@@H](C)CC)C(=O)N[C@@H](C)C(=O)N[C@H](C(=O)N[C@@H](Cc1c[nH]cn1)C(=O)N[C@@H](CO)C(=O)N[C@@H](CCC(N)=O)C(=O)N[C@@H](CC(=O)O)C(=O)N[C@H](C(=O)N[C@@H](CO)C(=O)N[C@H](C(=O)N1CCC[C@H]1C(=O)O)[C@@H](C)CC)C(C)C)C(C)C` [Peptide S16] (H-PAIAIAVHSQDVSIP-OH; N-terminus and C-terminus assumed), the “reduction of migration toward serum” value in the experiment with EA.hy926 cells is listed as ~ 90%. For the same molecule, the “proliferation relative to untreated control” value in the experiment on EOMA cells [1] is listed as “no change in proliferation”. Further, in the experiment on EOMA cells [2], the “reduction in wound closure” value came out at 60%. In addition, on TEM8, the “inhibition of TEM8-PA FRET” value is “negligible; also recorded: unable to compete”. At CMG2 (10 mM EDTA instead of 2 mM CaCl2 and 1 mM MgCl2, 10 µM S16, n=3), the “S16 binding to CMG2 in EDTA (BLI)” value is “prevents S16 binding”. The “on-rate (BLI)” value at CMG2 (1:1 model) is on record as “≈ 2 × 10^2 M^−1s^−1”. The “binding on BLI of S16 prepared to encourage monomerization” value on CMG2 (S16 prepared in a fashion that encourages monomerization) is listed as “binding is not observed”. Also, the koff at CMG2 was roughly 0.0001 s⁻¹. For the same molecule, the “S16 binding to CMG2 sensors treated with PA before S16 (BLI)” value on CMG2 (sensors equilibrated with 500 nM PA, then 10 µM S16, n=3) is on record as “reduced”.
Consider “SPIAVDVQSAPIHAI [scrambled S16, reference compound]”, for which the “directional migration versus vehicle” value in the experiment with EA.hy926 cells is “no significant difference”. Further, the “binding of CMG2 (BLI), in words” value on CMG2 (concentrations up to 30 μM, 3 independent experiments, no binding model fits) is recorded as “minimal binding”.

(Values after doi:10.1101/705459v3 (bioRxiv, 2019).)
